In test [1] the target is T1, DNA dC->dU-editing enzyme APOBEC-3A (Homo sapiens, UniProt P31941). Description: APOBEC3A DNA deaminase inhibitors, dose response, biochemical (AID 504722). In kind it is functional.
Test [2] deals with T2, DNA dC->dU-editing enzyme APOBEC-3G (Homo sapiens, UniProt Q9HC16). Description: Dose Response confirmation of small molecule APOBEC3G DNA Deaminase Inhibitors via a fluorescence-based single-stranded DNA deaminase assay. [Related pubchem assays (depositor defined):AID493012, AID493028]. The test is classed as functional.
The target of the next test is T3, Aminopeptidase N (Plasmodium falciparum FcB1/Columbia, UniProt O96935).
T3 sequence (O96935 whole entry): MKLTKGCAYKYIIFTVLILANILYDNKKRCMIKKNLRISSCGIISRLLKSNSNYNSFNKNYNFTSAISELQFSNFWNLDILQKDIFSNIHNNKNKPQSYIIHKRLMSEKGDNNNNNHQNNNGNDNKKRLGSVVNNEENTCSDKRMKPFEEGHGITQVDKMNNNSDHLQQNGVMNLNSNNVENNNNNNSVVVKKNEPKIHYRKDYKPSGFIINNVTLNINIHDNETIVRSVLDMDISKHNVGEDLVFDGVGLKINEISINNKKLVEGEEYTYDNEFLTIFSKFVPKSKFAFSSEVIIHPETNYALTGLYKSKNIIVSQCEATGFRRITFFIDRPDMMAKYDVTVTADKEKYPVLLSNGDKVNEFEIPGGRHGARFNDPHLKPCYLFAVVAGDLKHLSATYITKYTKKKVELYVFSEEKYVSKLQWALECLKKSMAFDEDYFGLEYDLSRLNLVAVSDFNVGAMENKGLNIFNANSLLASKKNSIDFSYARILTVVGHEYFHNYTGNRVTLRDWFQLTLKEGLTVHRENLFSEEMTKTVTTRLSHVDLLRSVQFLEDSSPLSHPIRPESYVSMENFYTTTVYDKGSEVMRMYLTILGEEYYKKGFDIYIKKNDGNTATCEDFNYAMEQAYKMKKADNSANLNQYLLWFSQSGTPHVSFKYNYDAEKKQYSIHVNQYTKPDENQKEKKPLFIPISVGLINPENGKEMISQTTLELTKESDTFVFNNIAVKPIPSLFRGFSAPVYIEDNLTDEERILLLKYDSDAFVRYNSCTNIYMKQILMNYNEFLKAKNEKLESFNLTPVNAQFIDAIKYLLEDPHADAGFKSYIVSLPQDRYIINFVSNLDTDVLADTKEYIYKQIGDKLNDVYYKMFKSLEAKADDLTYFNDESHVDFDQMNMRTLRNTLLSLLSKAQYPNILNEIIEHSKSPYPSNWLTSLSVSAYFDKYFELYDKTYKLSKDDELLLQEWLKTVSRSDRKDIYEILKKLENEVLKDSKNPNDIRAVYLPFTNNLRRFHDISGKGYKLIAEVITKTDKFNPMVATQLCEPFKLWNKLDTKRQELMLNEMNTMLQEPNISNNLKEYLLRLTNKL
Description: P. falciparum M1AAP inhibitors, biochemical, fluorogenic H-Leu-NHMec substrate, 1536-well (AID 1445). Also noted: species or system Plasmodium falciparum 3D7, 3D7.

The next test deals with T4, Leucine aminopeptidase (Plasmodium falciparum 3D7, UniProt Q8IL11).
T4 sequence (Q8IL11 whole entry): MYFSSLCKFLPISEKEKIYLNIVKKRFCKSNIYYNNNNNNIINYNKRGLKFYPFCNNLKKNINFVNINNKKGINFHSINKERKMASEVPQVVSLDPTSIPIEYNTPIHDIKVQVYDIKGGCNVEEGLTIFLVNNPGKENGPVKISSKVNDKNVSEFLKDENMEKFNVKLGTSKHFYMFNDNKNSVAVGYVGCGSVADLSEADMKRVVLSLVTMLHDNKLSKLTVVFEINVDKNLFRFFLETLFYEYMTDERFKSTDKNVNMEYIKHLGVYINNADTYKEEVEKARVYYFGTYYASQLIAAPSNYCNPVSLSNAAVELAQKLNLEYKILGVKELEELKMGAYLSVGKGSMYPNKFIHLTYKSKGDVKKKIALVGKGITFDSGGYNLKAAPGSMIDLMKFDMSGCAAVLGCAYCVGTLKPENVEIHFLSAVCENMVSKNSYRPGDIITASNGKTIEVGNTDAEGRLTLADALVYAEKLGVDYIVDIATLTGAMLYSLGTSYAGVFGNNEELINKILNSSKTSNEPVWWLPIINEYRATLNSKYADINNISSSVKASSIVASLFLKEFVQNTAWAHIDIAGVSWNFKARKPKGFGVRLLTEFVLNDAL
Description: P. falciparum M17LAP inhibitors, primary screen, biochemical, fluorogenic H-Leu-NHMec substrate, 1536-well (AID 1619). In kind it is functional.

Test [3] concerns the target T5, Zinc finger protein mex-5 (Caenorhabditis elegans, UniProt Q9XUB2).
T5 sequence (Q9XUB2 whole entry): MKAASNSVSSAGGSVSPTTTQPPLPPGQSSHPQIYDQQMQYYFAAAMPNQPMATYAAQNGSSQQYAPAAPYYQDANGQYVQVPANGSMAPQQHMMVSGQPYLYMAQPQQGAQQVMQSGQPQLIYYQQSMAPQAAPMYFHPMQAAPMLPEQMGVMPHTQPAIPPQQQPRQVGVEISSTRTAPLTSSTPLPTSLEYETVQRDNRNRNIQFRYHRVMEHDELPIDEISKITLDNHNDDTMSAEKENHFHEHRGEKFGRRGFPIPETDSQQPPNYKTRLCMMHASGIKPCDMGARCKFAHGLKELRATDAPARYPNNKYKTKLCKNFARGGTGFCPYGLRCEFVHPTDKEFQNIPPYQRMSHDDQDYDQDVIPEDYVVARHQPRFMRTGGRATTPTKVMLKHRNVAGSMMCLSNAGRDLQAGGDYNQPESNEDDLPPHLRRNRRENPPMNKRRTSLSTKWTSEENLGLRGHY
Description: MEX-5/TCR-2 RNA interaction inhibitors, dose response, biochemical, C. elegans, fluorescence polarization (AID 1960). (In general: Polarisation of emitted light reports the rotation of a fluorescent probe.)

In the next test the target is Nonstructural protein 1 (Influenza A virus, UniProt Q194T2). The test is classed as functional, Influenza A virus (A/California/07/2009(H1N1)).
The target in another test is Large T antigen (Simian virus 40, UniProt P03070). In kind it is functional, Betapolyomavirus macacae.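 Further: Confirmatory-stage PubChem screen for compounds that inhibit SV40 T antigen.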
For test [4], the target named is T6, RNA-binding protein pos-1 (Caenorhabditis elegans, UniProt G5EF15).
T6 sequence (G5EF15 whole entry): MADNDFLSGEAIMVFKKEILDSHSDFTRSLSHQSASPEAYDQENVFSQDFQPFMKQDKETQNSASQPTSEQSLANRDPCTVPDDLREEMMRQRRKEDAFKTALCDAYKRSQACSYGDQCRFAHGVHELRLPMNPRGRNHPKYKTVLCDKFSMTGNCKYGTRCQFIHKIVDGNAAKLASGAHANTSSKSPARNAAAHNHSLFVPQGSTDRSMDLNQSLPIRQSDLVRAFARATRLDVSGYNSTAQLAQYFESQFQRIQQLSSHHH
Description: inhibitors of POS-1/mex-3 RNA binding, dose response, biochemical, fluorescence polarization (AID 1964).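 Further: purified POS-1 fused to maltose binding protein made in E. coli; potency of compounds blocking POS-1 binding to fluorescent RNA.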

In test [5] the target is Induced myeloid leukemia cell differentiation protein Mcl-1 (Homo sapiens, UniProt Q07820). The test is classed as functional.
The target in the next test is Genome polyprotein (dengue virus type 2, UniProt P29990). Description: Dengue-2 NS5 methyltransferase inhibitors, primary screen, biochemical, confirmation dose response (AID 588689). The test is classed as functional.
The target in test [6] is T7, Alkaline phosphatase, tissue-nonspecific isozyme (Homo sapiens, UniProt P05186).
T7 sequence (P05186 whole entry): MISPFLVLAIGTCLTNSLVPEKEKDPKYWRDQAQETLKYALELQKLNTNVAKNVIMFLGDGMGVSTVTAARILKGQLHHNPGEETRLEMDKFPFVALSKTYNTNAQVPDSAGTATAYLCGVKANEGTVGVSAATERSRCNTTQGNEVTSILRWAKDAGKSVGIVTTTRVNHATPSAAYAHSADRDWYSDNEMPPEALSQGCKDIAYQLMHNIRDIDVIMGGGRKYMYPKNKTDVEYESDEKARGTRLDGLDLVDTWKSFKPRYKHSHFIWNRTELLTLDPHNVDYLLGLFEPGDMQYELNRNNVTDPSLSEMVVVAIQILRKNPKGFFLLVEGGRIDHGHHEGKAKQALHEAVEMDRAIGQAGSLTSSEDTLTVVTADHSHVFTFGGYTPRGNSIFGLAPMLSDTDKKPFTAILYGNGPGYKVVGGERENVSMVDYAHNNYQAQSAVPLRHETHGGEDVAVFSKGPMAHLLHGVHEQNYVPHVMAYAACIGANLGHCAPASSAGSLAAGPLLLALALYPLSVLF
Description: human TNAP enzyme inhibitors, SAR follow-up, biochemical, luminescent, dose response (AID 1056).

Test [7] addresses Alkaline phosphatase, placental type (Homo sapiens, UniProt P05187). Description: PLAP enzyme inhibitors, confirmation, biochemical, luminescence (AID 1512). The test is classed as functional.
Test [8] deals with Glyceraldehyde-3-phosphate dehydrogenase (Homo sapiens, UniProt P04406).
The target of test [9] is G-protein coupled receptor 55 (Homo sapiens, UniProt Q9Y2T6). Description: GPR55 agonists via beta-arrestin recruitment, primary screen, imaging, U2OS cells, beta-arrestin-GFP redistribution (AID 1961). The test is classed as functional. Background: Activated receptors often draw arrestin, which recruitment assays turn into a signal.
Test [10] has as its target T2, DNA dC->dU-editing enzyme APOBEC-3G. In kind it is functional.
The target in test [11] is T1, DNA dC->dU-editing enzyme APOBEC-3A. Description: Dose Response confirmation of small molecule APOBEC3A DNA Deaminase Inhibitors via a fluorescence-based single-stranded DNA deaminase assay. [Related pubchem assays (depositor defined):AID493011, AID493024]. In kind it is functional.
For a further test, the target named is T8, Hexokinase (Trypanosoma brucei, UniProt Q38C41).
T8 sequence (Q38C41 whole entry): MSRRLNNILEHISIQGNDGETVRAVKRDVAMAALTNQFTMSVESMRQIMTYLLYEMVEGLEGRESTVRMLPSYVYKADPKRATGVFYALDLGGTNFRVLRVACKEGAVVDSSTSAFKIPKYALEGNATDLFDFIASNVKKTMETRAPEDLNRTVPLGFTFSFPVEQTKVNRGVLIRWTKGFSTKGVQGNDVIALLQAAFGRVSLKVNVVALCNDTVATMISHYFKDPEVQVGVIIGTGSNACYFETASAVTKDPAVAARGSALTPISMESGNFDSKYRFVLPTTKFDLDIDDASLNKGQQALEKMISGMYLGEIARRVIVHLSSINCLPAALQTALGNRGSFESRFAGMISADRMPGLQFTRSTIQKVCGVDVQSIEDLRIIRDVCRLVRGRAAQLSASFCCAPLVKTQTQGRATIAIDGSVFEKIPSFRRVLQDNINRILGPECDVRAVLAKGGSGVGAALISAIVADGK
Description: Confirmation assay for inhibitors of Trypanosoma brucei hexokinase 1-Analogue-first series. [Related pubchem assays (depositor defined):AID1430, AID1632, AID2516, AID2560, AID2579, AID2600, AID449725, AID492951]. The test is classed as functional.

What is called IC50 is the midpoint of a concentration-inhibition curve. In general, EC50 refers to the concentration that produces a half-maximal response.

Where “and” joins values, the source holds several entries; their conditions need not be identical. Equal values may be shown once. Calls of active or inactive are those of the source.

T1 sequence (P31941 whole entry): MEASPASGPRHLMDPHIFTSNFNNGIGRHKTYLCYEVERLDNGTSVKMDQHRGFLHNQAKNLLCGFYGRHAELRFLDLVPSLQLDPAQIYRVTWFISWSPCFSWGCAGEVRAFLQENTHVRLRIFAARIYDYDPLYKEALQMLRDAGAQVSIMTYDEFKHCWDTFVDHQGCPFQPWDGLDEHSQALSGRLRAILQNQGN
T2 sequence (Q9HC16 whole entry): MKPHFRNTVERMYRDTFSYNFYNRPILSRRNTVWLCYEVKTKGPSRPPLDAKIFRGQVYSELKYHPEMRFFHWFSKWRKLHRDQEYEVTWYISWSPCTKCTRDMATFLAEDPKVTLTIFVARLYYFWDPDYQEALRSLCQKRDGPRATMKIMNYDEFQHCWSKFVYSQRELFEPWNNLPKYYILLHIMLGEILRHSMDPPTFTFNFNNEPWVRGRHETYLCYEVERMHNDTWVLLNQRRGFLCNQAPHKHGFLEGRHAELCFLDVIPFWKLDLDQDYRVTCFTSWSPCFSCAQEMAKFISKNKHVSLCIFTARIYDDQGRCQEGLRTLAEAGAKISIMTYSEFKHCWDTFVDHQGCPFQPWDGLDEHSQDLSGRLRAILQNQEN
Alkaline phosphatase, placental type, sequence (P05187 whole entry): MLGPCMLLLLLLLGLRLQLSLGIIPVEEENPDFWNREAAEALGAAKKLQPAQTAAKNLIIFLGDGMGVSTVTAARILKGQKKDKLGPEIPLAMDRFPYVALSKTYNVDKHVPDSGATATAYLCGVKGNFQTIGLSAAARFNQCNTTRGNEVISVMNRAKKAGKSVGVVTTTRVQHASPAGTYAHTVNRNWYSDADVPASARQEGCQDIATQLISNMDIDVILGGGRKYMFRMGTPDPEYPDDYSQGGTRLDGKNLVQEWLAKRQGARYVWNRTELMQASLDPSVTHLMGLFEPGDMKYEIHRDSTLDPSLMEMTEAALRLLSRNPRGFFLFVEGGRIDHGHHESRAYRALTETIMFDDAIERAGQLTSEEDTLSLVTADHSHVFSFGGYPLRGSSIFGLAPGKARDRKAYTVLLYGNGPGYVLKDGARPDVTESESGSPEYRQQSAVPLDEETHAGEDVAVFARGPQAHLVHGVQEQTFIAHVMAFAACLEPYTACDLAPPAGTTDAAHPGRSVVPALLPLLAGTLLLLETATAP
Glyceraldehyde-3-phosphate dehydrogenase, sequence (P04406 whole entry): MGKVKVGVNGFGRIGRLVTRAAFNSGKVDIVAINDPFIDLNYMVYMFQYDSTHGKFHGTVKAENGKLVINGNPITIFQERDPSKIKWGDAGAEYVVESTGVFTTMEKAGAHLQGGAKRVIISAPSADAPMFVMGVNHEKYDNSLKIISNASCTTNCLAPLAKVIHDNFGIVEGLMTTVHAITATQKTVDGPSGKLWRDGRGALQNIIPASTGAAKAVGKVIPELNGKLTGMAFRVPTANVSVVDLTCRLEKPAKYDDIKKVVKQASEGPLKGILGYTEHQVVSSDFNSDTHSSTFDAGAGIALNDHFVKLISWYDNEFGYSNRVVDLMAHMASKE
G-protein coupled receptor 55, sequence (Q9Y2T6 whole entry): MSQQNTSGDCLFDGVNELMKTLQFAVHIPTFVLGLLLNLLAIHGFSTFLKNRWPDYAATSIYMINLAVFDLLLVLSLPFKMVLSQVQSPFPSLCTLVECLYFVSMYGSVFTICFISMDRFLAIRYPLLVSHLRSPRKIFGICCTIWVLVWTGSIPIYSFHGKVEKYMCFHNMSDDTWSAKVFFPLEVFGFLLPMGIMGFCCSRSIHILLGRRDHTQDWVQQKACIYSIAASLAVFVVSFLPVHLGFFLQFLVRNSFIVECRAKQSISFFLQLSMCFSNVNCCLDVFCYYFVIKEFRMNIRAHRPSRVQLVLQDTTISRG
Nonstructural protein 1, sequence (Q194T2 whole entry): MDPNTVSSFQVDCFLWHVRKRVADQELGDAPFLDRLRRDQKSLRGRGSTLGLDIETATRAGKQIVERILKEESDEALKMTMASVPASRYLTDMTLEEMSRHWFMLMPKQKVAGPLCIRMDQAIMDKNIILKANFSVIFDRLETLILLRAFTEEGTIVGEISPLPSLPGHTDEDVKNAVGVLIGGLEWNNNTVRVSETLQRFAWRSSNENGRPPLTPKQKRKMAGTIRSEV
Large T antigen, sequence (P03070 whole entry): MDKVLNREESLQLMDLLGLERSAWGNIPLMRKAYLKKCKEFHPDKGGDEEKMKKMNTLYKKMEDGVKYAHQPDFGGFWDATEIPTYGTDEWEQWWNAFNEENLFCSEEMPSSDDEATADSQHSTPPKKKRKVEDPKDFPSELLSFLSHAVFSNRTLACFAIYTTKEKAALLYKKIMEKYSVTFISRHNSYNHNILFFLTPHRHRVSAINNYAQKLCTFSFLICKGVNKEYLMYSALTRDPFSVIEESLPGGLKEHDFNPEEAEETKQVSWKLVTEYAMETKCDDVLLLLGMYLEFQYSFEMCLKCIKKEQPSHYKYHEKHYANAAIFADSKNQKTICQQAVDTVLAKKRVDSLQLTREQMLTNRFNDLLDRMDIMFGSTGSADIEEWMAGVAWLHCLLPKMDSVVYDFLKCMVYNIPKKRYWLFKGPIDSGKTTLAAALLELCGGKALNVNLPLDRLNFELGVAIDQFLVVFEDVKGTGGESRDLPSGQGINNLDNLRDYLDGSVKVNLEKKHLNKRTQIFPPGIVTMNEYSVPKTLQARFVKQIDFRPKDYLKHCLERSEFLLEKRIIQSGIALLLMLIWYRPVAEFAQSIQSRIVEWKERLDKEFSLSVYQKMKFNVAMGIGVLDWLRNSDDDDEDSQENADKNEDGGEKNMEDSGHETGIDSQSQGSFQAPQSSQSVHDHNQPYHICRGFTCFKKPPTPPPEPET
Genome polyprotein, sequence (P29990 2492-3391 limits assumed): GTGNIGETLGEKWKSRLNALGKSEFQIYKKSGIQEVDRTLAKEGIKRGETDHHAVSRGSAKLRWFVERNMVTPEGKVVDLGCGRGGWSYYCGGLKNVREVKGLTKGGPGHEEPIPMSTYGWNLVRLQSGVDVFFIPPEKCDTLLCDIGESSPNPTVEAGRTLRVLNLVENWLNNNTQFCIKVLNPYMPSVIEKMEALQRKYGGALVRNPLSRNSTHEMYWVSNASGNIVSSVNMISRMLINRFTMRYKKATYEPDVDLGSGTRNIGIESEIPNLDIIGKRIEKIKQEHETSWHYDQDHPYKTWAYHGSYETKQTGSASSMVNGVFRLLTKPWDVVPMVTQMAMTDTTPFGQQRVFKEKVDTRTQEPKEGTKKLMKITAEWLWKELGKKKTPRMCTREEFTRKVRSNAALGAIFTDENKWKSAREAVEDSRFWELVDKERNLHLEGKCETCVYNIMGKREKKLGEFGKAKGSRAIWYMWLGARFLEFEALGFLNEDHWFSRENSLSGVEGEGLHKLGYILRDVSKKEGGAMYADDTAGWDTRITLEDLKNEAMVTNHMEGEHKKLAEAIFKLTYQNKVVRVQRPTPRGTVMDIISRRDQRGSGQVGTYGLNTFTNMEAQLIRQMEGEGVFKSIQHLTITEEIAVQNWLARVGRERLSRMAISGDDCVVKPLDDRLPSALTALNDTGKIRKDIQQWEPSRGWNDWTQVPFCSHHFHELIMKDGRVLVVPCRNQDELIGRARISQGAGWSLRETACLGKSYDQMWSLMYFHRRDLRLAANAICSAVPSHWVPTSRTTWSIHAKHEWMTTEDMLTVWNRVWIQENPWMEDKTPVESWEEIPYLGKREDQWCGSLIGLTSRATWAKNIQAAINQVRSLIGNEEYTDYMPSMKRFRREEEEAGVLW
Induced myeloid leukemia cell differentiation protein Mcl-1, sequence (Q07820 whole entry): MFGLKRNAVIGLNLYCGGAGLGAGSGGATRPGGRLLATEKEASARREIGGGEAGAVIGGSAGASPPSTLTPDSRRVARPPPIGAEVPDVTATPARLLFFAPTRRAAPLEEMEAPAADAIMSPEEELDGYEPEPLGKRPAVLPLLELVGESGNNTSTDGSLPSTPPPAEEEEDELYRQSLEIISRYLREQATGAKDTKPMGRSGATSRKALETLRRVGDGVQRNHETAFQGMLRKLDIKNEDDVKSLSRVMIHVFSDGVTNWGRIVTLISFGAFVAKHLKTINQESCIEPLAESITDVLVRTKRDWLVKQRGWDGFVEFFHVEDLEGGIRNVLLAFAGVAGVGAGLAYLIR

Consider `COc1cccc(C(=O)NCc2nnc(S)n2-c2cccc(C)c2)c1`, for which the IC50 was > 100 µM (inactive) in test [1] and 12.8 µM (active) in test [2].

Take `O=C(NN1C(=O)c2ccccc2NC1c1ccco1)c1ccccc1` (centres undefined): at Aminopeptidase N, the IC50 was 61.3 µM (active).

On to `O=C(O)c1ccccc1NS(=O)(=O)c1ccc(NNC(=S)Nc2ccc(OC(F)F)cc2)c([N+](=O)[O-])c1`, for which the IC50 was 5.33 µM (active) at Leucine aminopeptidase; 13 µM (active) at Nonstructural protein 1; 29.8 µM (active) on Large T antigen; 17.3 µM (active) on Aminopeptidase N; 2.95 µM (active) in [5]; 18.5 µM (active) on Genome polyprotein. Also, the figures for the EC50 in test [3] and in [4] were 5.57 µM (active) and 7.38 µM (active), respectively.

Take `O=C1CC(c2ccccc2)Cc2[nH]ncc21` (centres undefined): the results for the IC50 in test [6], in [7] and in test [8] were > 100 µM (inactive), > 100 µM (inactive) and > 100 µM (not active), respectively.

Consider `COc1ccc(-c2cc(C(=O)Nc3cc(S(=O)(=O)N4CCOCC4)ccc3N3CCOCC3)c3ccccc3n2)cc1`, for which, in [9], the 50% effective concentration (EC50) was 1.68 µM (active).

Consider `Sc1nc(-c2ccccc2)cn1/N=C/c1cccnc1`, for which the results for the IC50 in test [1] and in test [2] were > 100 µM (inactive) and 4.77 µM (active), respectively.

Regarding `CCc1nc(CNC(=O)c2cc(OC)c(OC)c(OC)c2)no1`, the concentration for half-maximal inhibition (IC50) was 3.11 µM (active) in test [10] and 2.24 µM (active) in [11].

Consider `CC(C)(C)OC(=O)NC1(C(Cl)(Cl)Cl)Oc2ccccc2O1`, for which the IC50 in test [6] and in [7] was > 100 µM (inactive) throughout.

`COc1ccc(C(=O)Nc2ccccc2-c2nn[nH]n2)cc1`: the IC50 on Hexokinase was > 25 µM (inactive).

`COc1ccc(C(=O)Nc2cc(Cl)ccc2C(=O)O)cc1OC`: the IC50 on Hexokinase is 15.5 µM (active).

For `Cc1ccc(-c2nc3ccccc3[nH]2)cc1NC(=S)NC(=O)c1ccccc1Br`, the EC50 in test [9] is 2.9 µM (active).

As for `Cc1ccc(C)c(NC(=O)Cn2cc(C(=O)C3CC3)c3ccccc32)c1`, the IC50 is 6.11 µM (active) in test [10] and 6.88 µM (active) in test [11].

Regarding `COC(=O)c1cc(-c2ccc(Cl)cc2Cl)n[nH]1`, the IC50 in test [6] was 264 nM (active) and 315 nM (active); in test [7], > 100 µM (inactive); in test [8] it was > 100 µM (not active).

For the origin of these results see ChEMBL document CHEMBL1201862, “PubChem BioAssay data set” (2004).
